“And” between values parts separate entries of the source, which are not always exact repeats. Equal values may be shown once.
Assays:
[1] = system: panel of five cancer cell lines; set-up: method as in PMID 23117171; conditions: read-out: IC50 range (Figure 1); cited from earlier work
HeLa = test: Antiproliferative MTT assay, HeLa; assay type: cell-based, human; conditions: Homo sapiens, HeLa, 72 h, mean ± SE
Method: (§1) Human T-cell leukemia (Jurkat) and human B-cell leukemia (SEM and RS4;11) cells were grown in RPMI-1640 medium (Gibco, Milano, Italy). Breast adenocarcinoma (MCF-7), human cervix carcinoma (HeLa), human lung adenocarcinoma (A549) and human colon adenocarcinoma (HT-29) cells were grown in DMEM medium (Gibco, Milano, Italy), all supplemented with 115 units/mL penicillin G (Gibco, Milano, Italy), 115 μg/mL streptomycin (Invitrogen, Milano, Italy), and 10% fetal bovine serum (FBS; Invitrogen, Milano, Italy). Stock solutions (10 mM) of the different compounds were obtained by dissolving them in DMSO. Individual wells of a 96-well tissue culture microtiter plate were inoculated with 100 μL of complete medium containing 8 × 10^3 cells. The plates were incubated at 37 °C in a humidified 5% CO2 incubator for 18 h prior to the experiments. After medium removal, 100 μL of fresh medium containing the test compound at different concentrations was added to each well in triplicate and incubated at 37 °C for 72 h. The percentage of DMSO in the medium never exceeded 0.25%. This was also the maximum DMSO concentration in all cell-based assays described below.

A549 = test: Antiproliferative MTT assay, A549; assay type: cell-based, human; conditions: Homo sapiens, A549, 72 h, mean ± SE
Method: as §1

HT-29 = test: Antiproliferative MTT assay, HT-29; assay type: cell-based, human; conditions: Homo sapiens, HT-29, 72 h, mean ± SE
Method: as §1

MCF-7 = test: Antiproliferative MTT assay, MCF-7; assay type: cell-based, human; conditions: Homo sapiens, MCF7, 72 h, mean ± SE
Method: as §1

Jurkat = test: Antiproliferative MTT assay, Jurkat; assay type: cell-based, human; conditions: Homo sapiens, Jurkat, 72 h, mean ± SE
Method: as §1

RS 4;11 = test: Antiproliferative MTT assay, RS 4;11; assay type: cell-based, human; conditions: Homo sapiens, RS4-11, 72 h, mean ± SE
Method: as §1

SEM cells = test: Antiproliferative MTT assay, SEM; assay type: cell-based, human; conditions: Homo sapiens, 72 h, mean ± SE
Method: as §1

bovine brain tubulin = test: Inhibition of tubulin polymerization; assay type: biochemical; conditions: tubulin at 10 μM; read-out: Tubulin assembly IC50 ± S.D
Method: (§2) To evaluate the effect of the compounds on tubulin assembly in vitro[41], varying concentrations of compounds were preincubated with 10 μM bovine brain tubulin in 0.8 M monosodium glutamate (pH adjusted to 6.6 with HCl in a 2.0 M stock solution) at 30 °C and then cooled to 0 °C. After addition of 0.4 mM GTP, the mixtures were transferred to 0 °C cuvettes in a recording spectrophotometer and warmed to 30 °C. Tubulin assembly was followed turbidimetrically at 350 nm. […] The capacity of the test compounds to inhibit colchicine binding to tubulin was measured as described, except that the reaction mixtures contained 1 μM tubulin, 5 μM [^3H]colchicine and 1 or 5 μM test compound.

tubulin = test: Inhibition of [3H]colchicine binding to tubulin; conditions: tubulin 1 μM, [3H]colchicine 5 μM
Method: as §2

[2] = system: panel of seven human tumor cell lines; test: Antiproliferative activity, range over panel of seven human tumor cell lines; assay type: cell-based; conditions: Homo sapiens, read-out: IC50 values, range over the cell line panel
Method: as §1

For `COc1cc(-c2nc(C)sc2-c2ccc3ccccc3c2)cc(OC)c1OC` [Compound 3d], the IC50 [1] is listed as 33 to 700 nM.

`CCOc1ccc(-c2oc(C)nc2-c2cc(OC)c(OC)c(OC)c2)cc1Cl` [Compound 4j, 5-(3-Chloro-4-ethoxyphenyl)-4-(3,4,5-trimethoxyphenyl)-2-methyloxazole] showed an IC50 (HeLa) of 4.2 ± 1.3 nM, an IC50 (A549) of 20.3 ± 11.4 nM and an IC50 (HT-29) of 0.9 ± 0.5 nM. It also gave an IC50 (MCF-7) of 1.5 ± 0.6 nM, an IC50 (Jurkat) of 77.7 ± 6.1 nM and an IC50 (RS 4;11) of 20.2 ± 5.4 nM. For the same molecule, the IC50 (SEM cells) was 51 ± 13.5 nM, the IC50 (bovine brain tubulin) was 1800 ± 100 nM and the “Colchicine binding % inhibition ± S.D, 5 μM drug” value (tubulin) was 53 ± 3%. It also gave a melting point of 124 to 126 °C.

For `COc1ccc(-c2sc(C)nc2-c2cc(OC)c(OC)c(OC)c2)cc1` [Compound 3b], the IC50 [1] is listed as 500 to 3400 nM.

In the case of `COc1cc(-c2oc(C)nc2-c2ccc3ccccc3c2)cc(OC)c1OC` [Compound 5a, 5-(3,4,5-Trimethoxyphenyl)-2-methyl-4-(naphthalen-3-yl)oxazole], the IC50 (HeLa) is reported as 37 ± 14.4 nM, the IC50 (A549) is reported as 45.2 ± 12.5 nM and the IC50 (HT-29) is reported as 315 ± 145 nM. It also gave an IC50 (MCF-7) of 5.2 ± 2.4 nM, an IC50 (Jurkat) of 638 ± 154 nM and an IC50 (RS 4;11) of 250 ± 89.3 nM. For the same molecule, the IC50 (bovine brain tubulin) was 1600 ± 100 nM, the “Colchicine binding % inhibition ± S.D, 5 μM drug” value (tubulin) was 64 ± 4% and the melting point was 95 to 97 °C.

`COc1ccc(-c2nc(C)sc2-c2cc(OC)c(OC)c(OC)c2)cc1` [Compound 3e, 2-methyl-4-(4′-methoxyphenyl)-5-(3′,4’,5′-trimethoxyphenyl)thiazole, reference compound] showed an IC50 (HeLa) of 1980 ± 780 nM, an IC50 (A549) of 2760 ± 1200 nM and an IC50 (HT-29) of 3700 ± 263 nM. The IC50 (MCF-7) was 1930 ± 448 nM, the IC50 (Jurkat) was 7200 ± 586 nM and the IC50 (RS 4;11) was 2970 ± 738 nM. The IC50 (SEM cells) was 1980 ± 780 nM.

`COc1cc(-c2oc(C)nc2-c2ccc(C)cc2)cc(OC)c1OC` [Compound 5d, 5-(3,4,5-Trimethoxyphenyl)-2-methyl-4-p-tolyloxazole] showed an IC50 (HeLa) of 148 ± 55.3 nM, an IC50 (A549) of 2580 ± 289 nM and an IC50 (HT-29) of 523 ± 61.8 nM. For the same molecule, the IC50 (MCF-7) was 360 ± 52.6 nM, the IC50 (Jurkat) was 922 ± 76.6 nM and the IC50 (RS 4;11) was 635 ± 387 nM. The IC50 (SEM cells) was 352 ± 77.8 nM and the melting point was 128 to 129 °C.

Molecule `COc1ccc(-c2oc(C)nc2-c2cc(OC)c(OC)c(OC)c2)cc1` [Compound 4e, 4-(3,4,5-Trimethoxyphenyl)-5-(4-methoxyphenyl)-2-methyloxazole] has an IC50 (HeLa) of 10.8 ± 4.7 nM, an IC50 (A549) of 179 ± 36.3 nM and an IC50 (HT-29) of 40.8 ± 19.7 nM. The IC50 (MCF-7) was 27.7 ± 12 nM, the IC50 (Jurkat) was 18.7 ± 6 nM and the IC50 (RS 4;11) was 7.6 ± 2.3 nM. The IC50 (SEM cells) was 35.6 ± 12.5 nM, the IC50 (bovine brain tubulin) was 950 ± 100 nM and the “Colchicine binding % inhibition ± S.D, 1 μM drug” value (tubulin) was 47 ± 4%. For the same molecule, the “Colchicine binding % inhibition ± S.D, 5 μM drug” value (tubulin) was 78 ± 3% and the melting point was 134 to 136 °C.

For `CCOc1ccc(-c2sc(C)nc2-c2cc(OC)c(OC)c(OC)c2)cc1` [Compound 3c], the IC50 [1] is listed as 43 to 3300 nM.

`COc1cc(-c2nc(C)oc2-c2ccc(C)cc2)cc(OC)c1OC` [Compound 4d, 4-(3,4,5-Trimethoxyphenyl)-2-methyl-5-p-tolyloxazole] showed an IC50 (HeLa) of 31 ± 16 nM, an IC50 (A549) of 92.3 ± 21.5 nM and an IC50 (HT-29) of 53 ± 24.6 nM. It also gave an IC50 (MCF-7) of 244 ± 74.2 nM, an IC50 (Jurkat) of 102 ± 22.6 nM and an IC50 (RS 4;11) of 25.3 ± 3.2 nM. For the same molecule, the IC50 (SEM cells) was 134 ± 39.5 nM, the IC50 (bovine brain tubulin) was 660 nM and the “Colchicine binding % inhibition ± S.D, 1 μM drug” value (tubulin) was 55 ± 3%. For the same molecule, the “Colchicine binding % inhibition ± S.D, 5 μM drug” value (tubulin) was 86% and 82 ± 3%, the IC50 [2] was 25 to 243 nM and the melting point was 110 to 112 °C.

For `COc1cc(-c2oc(C)nc2-c2ccc(Cl)cc2)cc(OC)c1OC` [Compound 5c, 4-(4-Chlorophenyl)-5-(3,4,5-trimethoxyphenyl)-2-methyloxazole], the IC50 (HeLa) was 2560 ± 475 nM, the IC50 (A549) was over 10000 nM and the IC50 (HT-29) was over 10000 nM. For the same molecule, the IC50 (MCF-7) was over 10000 nM, the IC50 (Jurkat) was 5250 ± 0.934 nM and the IC50 (RS 4;11) was 815 ± 406 nM. It also gave an IC50 (SEM cells) of 6570 ± 500 nM and a melting point of 149 to 151 °C.
